Source: patent US6831196B2, “Urokinase inhibitors” (Curacyte AG, priority 2000, dated 2004)
Structures can show the parent of a compound that is named as a salt.

biological target: sc-urokinase (Homo sapiens, UniProt P00749); experiment: Inhibiting urokinase: chromogenic substrate Bz-βAla-Gly-Arg-pNA, Ki by Dixon; format: biochemical; details: 25° C., pH 8.0, mean of at least three determinations
Text: Inhibiting urokinase with selected compounds in which Y=amidino
Determining the inhibitory effect:
The Ki values are the mean of at least three determinations.

Row | SMILES | Ki
1 | CC(C)(C)OC(=O)N[C@H](COCc1ccccc1)C(=O)NCC(=O)NCc1cccc(C(=N)N)c1 [Boc, D, CH2—O—Bz, H, CH2, 3] | > 1000 µM
2 | CC(C)(C)OC(=O)N[C@@H](CO)C(=O)NCC(=O)NCc1ccc(C(=N)N)cc1 [Boc, L, CH2—OH, H, CH2, 4] | 23 µM
3 | N=C(N)c1cccc(CNC(=O)CNC(=O)[C@@H](COCc2ccccc2)NS(=O)(=O)Cc2ccccc2)c1 [Bz—SO2, D, CH2—O—Bz, H, CH2, 3] | > 1000 µM
4 | N=C(N)c1ccc(CNC(=O)CNC(=O)[C@@H](COCc2ccccc2)NS(=O)(=O)Cc2ccccc2)cc1 [Bz—SO2, D, CH2—O—Bz, H, CH2, 4, Benzylsulfonyl-D-Ser(Bz)-Gly-4-amidinobenzyl-amide×TFA] | 0.84 µM
5 | CC(C)COC(=O)OC[C@@H](NS(=O)(=O)Cc1ccccc1)C(=O)NCC(=O)NCc1ccc(C(=N)N)cc1 [Bz—SO2, D, CH2—O—COO-iBu, H, CH2, 4, Benzylsulfonyl-D-Ser(COO-isobutyl)-Gly-4-amidino-benzylamide×HCl] | 0.5 µM
6 | COC(=O)OC[C@@H](NS(=O)(=O)Cc1ccccc1)C(=O)NCC(=O)NCc1ccc(C(=N)N)cc1 [Bz—SO2, D, CH2—O—COO—CH3, H, CH2, 4] | 0.39 µM
7 | N=C(N)c1ccc(CNC(=O)CNC(=O)[C@@H](CO)NS(=O)(=O)CC2CCCCC2)cc1 [CMe—SO2, D, CH2—OH, H, CH2, 4] | 0.048 µM
8 | N=C(N)c1ccc(CNC(=O)CNC(=O)[C@H](N)CO)cc1 [H, D, CH2—OH, H, CH2, 4] | 12 µM
9 | N=C(N)c1cccc(CNC(=O)CNC(=O)[C@H](N)COCc2ccccc2)c1 [H, D, CH2—O—Bz, H, CH2, 3] | > 1000 µM
10 | N=C(N)c1ccc(CNC(=O)CNC(=O)[C@@H](N)CO)cc1 [H, L, CH2—OH, H, CH2, 4] | 21 µM
